Results as given in ChEMBL document CHEMBL3580539, “Discovery of small molecule inhibitors targeting the SUMOSIM interaction using a protein interface consensus approach” (Medchemcomm, 2014).

target: Small ubiquitin-related modifier 2/3 (SUMO 2/3) (Homo sapiens, UniProt P61956+P55854); test: Binding affinity to His-tagged SUMO2/3 (unknown origin) expressed in Escherichia coli BL21 (DE3) measured over 120 secs by SPR analysis

Structure (SMILES)	Kd [µM]
CC(NS(=O)(=O)c1ccc(Cl)c(Cl)c1)C(=O)NNC(=O)c1ccccc1O (stereo not drawn)	1.9
COCC(C)n1c(NCc2ccccn2)nc2ccccc2c1=O (stereo not drawn)	59
C=CCNc1nc(NCc2ccccn2)nc2ccccc12	29
